Measured values published in patent publication US20250195498A1, “INHIBITOR OF CELLULAR PURINE NUCLEOTIDE SALVAGE PATHWAY ENZYME FOR USE IN THE TREATMENT AND/OR PREVENTION OF HELICOBACTER PYLORI INFECTION AND/OR DISEASE ASSOCIATED WITH SUCH INFECTION AND PHARMACEUTICAL COMPOSITION COMPRISING THE SAME” (UNIWERSYTET WARSZAWSKI, priority 2022, published 2025).
Values after ≈ are worked out from the molar mass of the structure shown. Values joined by “and” are separate entries in the source; they are usually repeats but may differ in a detail not shown here. Equal entries are not always repeated. Where two headings read alike, the source gives them in different places.

Tests used:
H. pylori strain 26695 = test: Growth curve method / MIC in liquid culture, strain 26695; type: cell-based, Helicobacter pylori; conditions: strain 26695; for MIC: read-out: MIC; for % inhibition of H. pylori cell cultures at maximum inhibitor solubility: at maximum solubility in 3.5% DMSO; for growth inhibition: 200 μM, partially precipitated
Procedure: (§1) The representative PNP inhibitor from H. pylori included in this study was immucillin A. The experiment was conducted using the growth curve method (two-fold serial dilutions in liquid medium). The tested H. pylori strains were cultured in Petri dishes with BHI solid medium supplemented with 10% FBS and 1% H. pylori Selective Supplement antibiotic kit, in anaerostats under microaerophilic conditions (5% 02, 10% CO2, 85% N2) at 37° C. for 3 days. Liquid culture of H. pylori was conducted overnight with shaking at 37° C. under microaerophilic conditions in BHI medium supplemented with 10% FBS and 1% H. pylori Selective Supplement antibiotic kit. Subsequently, for the essential experiment of determining the minimum inhibitory concentration (MIC), double strengthened liquid BHI medium was prepared, that is, supplemented with 20% FBS and a 2% set of H. pylori Selective Supplement antibiotics.
(§2) Bacterial proliferation inhibition experiments were carried out in 24-deep-well 2 ml flat-bottomed plates at a solution volume per well of 0.5 ml. In a single well, double strengthened (relative to the concentration planned for testing) solutions of the test inhibitor and double strengthened liquid BHI medium inoculated with H. pylori (10^4-10^5 CFU/ml in the final volume in the well, corresponding to the optical density of the culture OD600=0.05) were mixed together in a 1:1 ratio.
(§3) Kanamycin at a concentration of 25 μg/ml (Irie et al., 1997) was used as a positive control, while Mili-Q deionized water and BHI medium not inoculated with bacteria were used as negative controls. Plates were shaken at 37° C., under microaerophilic conditions. […] After 24 hours, the OD600 of samples containing the negative control, i.e. with Mili-Q deionized water, was about 1.2-1.4, corresponding to a bacterial concentration of about […].
(§4) In addition, the method proposed by Knezevic et al. (2018) was used to check whether the observed OD600 was from live bacterial cells. For this purpose, an equal volume of Christensen's double strength urea broth (that is, containing twice the concentration of all components) was added to the wells after incubation, and the plates were additionally incubated for 4 hours in an oxygen atmosphere at 37° C. During incubation, in wells with urease produced by live bacteria, urea is converted to ammonia and carbon dioxide, changing the pH of the solution and thus the colour of the phenol red indicator contained in the medium (from orange to purple).
(§5) All experiments were performed in triplicate.
The experiments were carried out using the growth curve method as described in Example 3, and the results obtained for two of the compounds tested are shown in FIG. 5. As the water solubility of the compounds tested, with the exception of 2,6-diCl-Pu, is relatively poor, two experiments were carried out: the first with the maximum concentration possible under the experimental conditions in aqueous solution with a small admixture of DMSO, and the second with higher concentrations that led to partial precipitation of the compound.
The antibacterial activity of two compounds, mefloquine (in the form of hydrochloride) and quinine, described in the literature as potent in vitro inhibitors of the PNP enzyme from Plasmodium falciparum (Dziekan et al., 2019), was tested. Using a two-fold serial dilution method in liquid medium (as described in Example 3), the MIC values for mefloquine and quinine were determined against clinical H. pylori strains resistant to MTZ, CLR and MTZ+CLR (M26, M91, M92 and M93), as well as the reference H. pylori strain 26695. Four clinical H. pylori strains isolated from adults, from primary infections (the subjects had never previously been treated against H. pylori infection) were tested. These strains come from the collection of the Department of Microbiology of the Medical University of Wroclaw and were obtained due to collaboration with Prof. Grażyna Gościniak, MD, PhD. […]

[1] = target: T1, PNP from H. pylori strain 26695 (Helicobacter pylori, UniProt P56463); test: Inhibition of PNP from H. pylori, spectrophotometric phosphorolysis assay; type: biochemical
T1 construct: made in house; host or cells: E. coli
T1 sequence (P56463 whole entry): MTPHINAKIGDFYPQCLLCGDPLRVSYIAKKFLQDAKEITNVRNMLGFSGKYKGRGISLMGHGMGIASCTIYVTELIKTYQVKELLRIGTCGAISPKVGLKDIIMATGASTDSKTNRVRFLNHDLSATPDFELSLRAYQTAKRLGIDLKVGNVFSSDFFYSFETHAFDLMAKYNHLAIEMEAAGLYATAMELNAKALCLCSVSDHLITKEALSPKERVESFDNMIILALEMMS
Source text: The specific activity of PNP is usually determined using inosine as a substrate, in an assay in which the phosphorolysis product, hypoxanthine, is oxidized to uric acid in a reaction catalysed by xanthine oxidase. However, in the inhibition assay of PNP from H. pylori strain 26695, 7-methylguanosine (m^7Guo) and guanosine (Guo) were used as nucleoside substrates to avoid potential inhibition of xanthine oxidase by the test compounds. Phosphorolysis of these two substrates can be observed using a direct spectrophotometric method in a known manner.
Enzymatic activity was studied in a quartz cuvette with an optical path length of 1 cm or 0.5 cm. The absorbance of the reaction mixture, at the observation wavelength, never exceeded 1.2. The reaction volume was 1 ml or 1.4 ml in cuvettes with optical path lengths of 1 cm and 0.5 cm, respectively. The reaction mixture contained 50 mM Hepes/NaOH buffer, pH 7.0, 50 mM phosphate buffer, pH 7.0 (unless otherwise indicated), nucleoside substrate and inhibitor (with the latter not added to the reference/control reactions). Reactions were usually initiated by adding the enzyme to a cuvette containing the other reaction components. However, in cases where possible slow formation of an inhibitor-enzyme complex was checked, a second variant was also used involving incubation of the enzyme in a reaction mixture containing the inhibitor but lacking the substrate, 7-methylguanosine, and initiation of the reaction by adding this substrate.
In order to determine the inhibition constants and determine the molecular mechanism of inhibition, equations describing different mechanisms of inhibition were fitted to the obtained experimental data. GraphPad Prism 8 program was used. The model best describing the obtained data was selected based on the sum of squares of deviations using the F test for models with different number of parameters and the Akaike criterion (AIC) for models with the same number of parameters.
The following equations were used to describe competitive inhibition, characterized by the inhibition constant Kic, [1], uncompetitive, characterized by the inhibition constant Kiu, [2], non-competitive, characterized by the inhibition constant Kin, [3], and mixed, characterized by the inhibition constants Kiu and Kic, [4] (Segel, 1993):
The last equation can also be represented in the following form, as used by GraphPad Prism software, where Kiu=alpha Kic:
Immucillin A was chosen as the most promising one for potential pharmacological use in combating H. pylori infection because immucillin A has an amino substituent at position 6 of the 9-dazapurine ring, while PNP found in the human body requires a substituent at this position having electron-pairs-hydrogen bond acceptors, such as a substituent in the form of a keto group, to strongly bind the ligand. According to the invention, it is therefore believed that immucillin A will not interact with the host PNP, and thus allow selective inhibition of the PNP from H. pylori. Using the methods described above, the effect of immucillin A on the rate of the 7-methylguanosine (m^7Guo) phosphorolysis reaction catalysed by PNP from H. pylori was examined (FIG. 1). Since it is known (Schramm, 2018) that immucillins form a strongly bound complex with the enzyme relatively slowly, reactions were initiated by adding the substrate, m^7Guo, to a cuvette in which the enzyme was incubated with the inhibitor, as described in Example 1.
Data analysis was also performed as described in this Example. The range of substrate concentrations tested was 10-200 μM or 10-280 μM (shown in FIG. 4), and the range of inhibitor concentrations was chosen according to the observed degree of inhibition of the reaction, in order to obtain a significant degree of inhibition that allows determination of the inhibition mechanism and determination of inhibition constants (see FIG. 4). […]

[2] = tested on: H. pylori strain M26 (MTZ + CLR resistant); test: Growth curve method / MIC, resistant strain M26; type: cell-based, Helicobacter pylori; conditions: strain M26, MTZ + CLR resistant
Procedure: as §1, §2, §3, §4, §5
(§6) The antibacterial activity of two compounds, mefloquine (in the form of hydrochloride) and quinine, described in the literature as potent in vitro inhibitors of the PNP enzyme from Plasmodium falciparum (Dziekan et al., 2019), was tested. Using a two-fold serial dilution method in liquid medium (as described in Example 3), the MIC values for mefloquine and quinine were determined against clinical H. pylori strains resistant to MTZ, CLR and MTZ+CLR (M26, M91, M92 and M93), as well as the reference H. pylori strain 26695. Four clinical H. pylori strains isolated from adults, from primary infections (the subjects had never previously been treated against H. pylori infection) were tested. These strains come from the collection of the Department of Microbiology of the Medical University of Wroclaw and were obtained due to collaboration with Prof. Grażyna Gościniak, MD, PhD. The tested compounds belong to organic substances and are soluble in DMSO. The maximum tested concentration of quinine in H. pylori culture was 0.56 mM, and that of mefloquine was 2.25 mM. […] On each occasion, the effect of DMSO alone on the growth of the H. pylori strains tested was also checked. […] Kanamycin was used as a positive control and Mili-Q deionised water as a negative control. All experiments were carried out in triplicate. […]

[3] = tested on: H. pylori strain M92 (CLR resistant); test: Growth curve method / MIC, resistant strain M92; type: cell-based, Helicobacter pylori; conditions: strain M92, CLR resistant
Procedure: as §1, §2, §3, §4, §5, §6

[4] = tested on: H. pylori strain M93 (MTZ resistant); test: Growth curve method / MIC, resistant strain M93; type: cell-based, Helicobacter pylori; conditions: strain M93, MTZ resistant
Procedure: as §1, §2, §3, §4, §5, §6

[5] = tested on: H. pylori strain M91 (MTZ + CLR resistant); test: Growth curve method / MIC, resistant strain M91; type: cell-based, Helicobacter pylori; conditions: strain M91, MTZ + CLR resistant
Procedure: as §1, §2, §3, §4, §5, §6

[6] = 7-methylguanosine substrate, 25° C., pH 7.0, 50 mM phosphate, mixed type model, read-out: Kic
[7] = 7-methylguanosine substrate, 25° C., pH 7.0, 50 mM phosphate, mixed type model, read-out: Kiu
[8] = 7-methylguanosine substrate, 25° C., pH 7.0, 50 mM phosphate, non-competitive model, read-out: Kin
[9] = 7-methylguanosine substrate, mixed type model
[10] = 7-methylguanosine substrate, 25° C., pH 7.0, 50 mM phosphate, uncompetitive model, read-out: Kiu
[11] = Helicobacter pylori, inhibitor partially precipitated, actual dissolved concentration lower
[12] = Helicobacter pylori, read-out: MIC
[13] = listed as Mefloquine (hydrochloride)
[14] = listed as Mefloquine (hydrochloride), read-out: MIC

Structure (SMILES)	MIC (H. pylori strain 26695; Helicobacter pylori)	% inhibition of H. pylori cell cultures at maximum inhibitor solubility (H. pylori strain 26695) [%]	Ki [1, 6] [µM]	Ki [1, 7] [µM]	Ki [1, 8] [µM]	alpha = Kiu/Kic [1, 9]	further results
Clc1nc(Cl)c2[nH]cnc2n1 [2,6-diCl-Pu, 2,6-dichloropurine]	473 µg/mL and 2500 µM	93	–	–	–	–	–
Clc1nc(Cl)c2[nH]cnc2n1 [2,6-dichloropurine]	–	–	20 ± 4.9	23.5 ± 3.5	22.2 ± 1.4	1.17 ± 0.44	–
c1ccc(CSc2ncnc3nc[nH]c23)cc1 [6-benzylthiopurine]	–	–	7.5 ± 1.3	8.1 ± 0.7	7.9 ± 0.4	1.07 ± 0.27	–
Clc1nc(OCc2ccccc2)c2[nH]cnc2n1 [6BnO-2Cl-Pu, 6-benzyloxy-2-chloropurine]	–	35	18.3 ± 7.3	4.6 ± 0.5	6.5 ± 0.4	0.25 ± 0.12	inhibition at 350 µM (H. pylori strain 26695; Helicobacter pylori, 350 μM (91 μg/ml), inhibitor partially precipitated, read-out: % inhibition of H. pylori cell cultures): 75%; Ki [1, 10]: 3.8 ± 0.3 µM
Clc1nc(SCc2ccccc2)c2[nH]cnc2n1 [6BnS-2Cl-Pu, 6-benzylthio-2-chloropurine]	–	92	13.2 ± 10.7	2.1 ± 0.3	–	0.16 ± 0.15	MIC (H. pylori strain 26695; [11]): 69 µg/mL and 250 µM; Ki [1, 10]: 1.8 ± 0.2 µM
OC[C@H]1O[C@@H](n2cnc3c(SCc4ccccc4)nc(Cl)nc32)C[C@@H]1O [6BnS-2Cl-Pu-9dr, 2-chloro-6-benzylthiopurine-2′-deoxy-9-ribofuranoside]	–	5	6.2 ± 2.4	2.9 ± 0.5	–	0.47 ± 0.24	growth inhibition (H. pylori strain 26695): complete growth inhibition; alpha = Kiu/Kic ([1]; guanosine as a substrate, mixed type model): 0.16 ± 0.08; Ki ([1]; guanosine as a substrate, mixed type model, read-out: Kic): 12.6 ± 5.7 µM; Ki ([1]; guanosine as a substrate, mixed type model, read-out: Kiu): 2 ± 0.2 µM
c1ccc(CSc2ncnc3nc[nH]c23)cc1 [6BnS-Pu, 6-benzylthiopurine]	–	83	–	–	–	–	MIC (H. pylori strain 26695; [11]): 48 µg/mL and 200 µM; growth inhibition (H. pylori strain 26695): Complete inhibition
NC[C@H]1O[C@H](O[C@H]2[C@H](O)[C@@H](O[C@H]3O[C@H](CO)[C@@H](O)[C@H](N)[C@H]3O)[C@H](N)C[C@@H]2N)[C@H](O)[C@@H](O)[C@@H]1O [Kanamycin, kanamycin]	–	–	–	–	–	–	inhibition at 52 µM (H. pylori strain 26695; Helicobacter pylori, kanamycin 25 μg/ml (52 μM), positive control, read-out: % inhibition of H. pylori cell cultures): 92 to 96%
Nc1ncnc2c([C@@H]3N[C@H](CO)C(O)[C@@H]3O)c[nH]c12 (some centres unmarked) [immucillin A]	80 µM (≈ 21.2 µg/mL)	–	–	–	–	–	Ki [1]: 0.0013 ± 0.0002 µM
OC(c1cc(C(F)(F)F)nc2c(C(F)(F)F)cccc12)C1CCCCN1 (centres unmarked) [mefloquine]	50 µM and 21 µg/mL	–	–	–	–	–	MIC [2, 12]: 35 µM and 14.5 µg/mL; MIC [2, 13]: (14.5 μg/ml); MIC [2, 14]: 35 µM; MIC [3, 12]: 40 µM and 17 µg/mL; MIC [3, 13]: (17 μg/ml); MIC [3, 14]: 40 µM (≈ 15.1 µg/mL); MIC [4, 12]: 35 µM and 14.5 µg/mL; MIC [4, 13]: (14.5 μg/ml); MIC [4, 14]: 35 µM (≈ 13.2 µg/mL); MIC [5, 12]: 50 µM and 21 µg/mL; MIC [5, 13]: (21 μg/ml); MIC [5, 14]: 50 µM
